{"source": "the NIST ThermoML archive (doi:10.1016/j.jct.2006.07.017)", "key": {"[1]": {"experiment": "refractive index (Na D-line) (dimensionless)", "details": "298.15 K; 101.33 kPa; Liquid; Standard Abbe refractometry"}, "[2]": {"details": "298.15 K; 101.33 kPa; Liquid"}, "[3]": {"experiment": "xn = mol fraction of the nth substance listed", "details": "101 kPa, Liquid"}}, "note": "Numbers after ± are expanded uncertainties.", "data": [{"smiles": "Cc1ccccc1C", "note": "[1,2-dimethylbenzene]", "values": [{"measurement": "refractive index", "setting": "[1]", "result": "1.5057 ± 0.0007"}, {"measurement": "mass density", "setting": "[2]", "result": "875.73 ± 0.34", "unit": "kg/m3"}]}, {"smiles": "Cc1cccc(C)c1", "note": "[1,3-dimethylbenzene]", "values": [{"measurement": "refractive index", "setting": "[1]", "result": "1.4973 ± 0.0008"}, {"measurement": "mass density", "setting": "[2]", "result": "859.83 ± 1.6", "unit": "kg/m3"}]}, {"smiles": "Cc1ccc(C)cc1", "note": "[1,4-dimethylbenzene]", "values": [{"measurement": "refractive index", "setting": "[1]", "result": "1.4958 ± 0.0008"}, {"measurement": "mass density", "setting": "[2]", "result": "856.58 ± 0.85", "unit": "kg/m3"}]}, {"smiles": "Cc1ccc(C)cc1", "note": "[1,4-dimethylbenzene] + CN(C)C=O", "values": [{"measurement": "mass density", "setting": "[3]; 293.15 K, x1 = 0.0562", "result": "941.87 ± 0.34", "unit": "kg/m3"}, {"measurement": "mass density", "setting": "[3]; 293.15 K, x1 = 0.1211", "result": "934.47 ± 0.37", "unit": "kg/m3"}, {"measurement": "mass density", "setting": "[3]; 293.15 K, x1 = 0.1885", "result": "927.18 ± 0.39", "unit": "kg/m3"}, {"measurement": "mass density", "setting": "[3]; 293.15 K, x1 = 0.2532", "result": "920.51 ± 0.41", "unit": "kg/m3"}, {"measurement": "mass density", "setting": "[3]; 293.15 K, x1 = 0.3225", "result": "913.72 ± 0.43", "unit": "kg/m3"}, {"measurement": "mass density", "setting": "[3]; 293.15 K, x1 = 0.3865", "result": "907.74 ± 0.46", "unit": "kg/m3"}, {"measurement": "mass density", "setting": "[3]; 293.15 K, x1 = 0.4525", "result": "901.85 ± 0.48", "unit": "kg/m3"}, {"measurement": "mass density", "setting": "[3]; 293.15 K, x1 = 0.5121", "result": "896.75 ± 0.5", "unit": "kg/m3"}, {"measurement": "mass density", "setting": "[3]; 293.15 K, x1 = 0.5853", "result": "890.75 ± 0.52", "unit": "kg/m3"}, {"measurement": "mass density", "setting": "[3]; 293.15 K, x1 = 0.6441", "result": "886.12 ± 0.54", "unit": "kg/m3"}, {"measurement": "mass density", "setting": "[3]; 293.15 K, x1 = 0.7154", "result": "880.72 ± 0.56", "unit": "kg/m3"}, {"measurement": "mass density", "setting": "[3]; 293.15 K, x1 = 0.7664", "result": "876.98 ± 0.58", "unit": "kg/m3"}, {"measurement": "mass density", "setting": "[3]; 293.15 K, x1 = 0.8353", "result": "872.08 ± 0.6", "unit": "kg/m3"}, {"measurement": "mass density", "setting": "[3]; 293.15 K, x1 = 0.8901", "result": "868.29 ± 0.62", "unit": "kg/m3"}, {"measurement": "mass density", "setting": "[3]; 293.15 K, x1 = 0.9577", "result": "863.74 ± 0.64", "unit": "kg/m3"}, {"measurement": "mass density", "setting": "[3]; 303.15 K, x1 = 0.0625", "result": "931.96 ± 0.37", "unit": "kg/m3"}, {"measurement": "mass density", "setting": "[3]; 303.15 K, x1 = 0.1321", "result": "924.04 ± 0.39", "unit": "kg/m3"}, {"measurement": "mass density", "setting": "[3]; 303.15 K, x1 = 0.1912", "result": "917.66 ± 0.41", "unit": "kg/m3"}, {"measurement": "mass density", "setting": "[3]; 303.15 K, x1 = 0.2684", "result": "909.75 ± 0.44", "unit": "kg/m3"}, {"measurement": "mass density", "setting": "[3]; 303.15 K, x1 = 0.3325", "result": "903.53 ± 0.46", "unit": "kg/m3"}, {"measurement": "mass density", "setting": "[3]; 303.15 K, x1 = 0.3965", "result": "897.61 ± 0.48", "unit": "kg/m3"}, {"measurement": "mass density", "setting": "[3]; 303.15 K, x1 = 0.4584", "result": "892.15 ± 0.5", "unit": "kg/m3"}, {"measurement": "mass density", "setting": "[3]; 303.15 K, x1 = 0.5214", "result": "886.82 ± 0.52", "unit": "kg/m3"}, {"measurement": "mass density", "setting": "[3]; 303.15 K, x1 = 0.5853", "result": "881.64 ± 0.54", "unit": "kg/m3"}, {"measurement": "mass density", "setting": "[3]; 303.15 K, x1 = 0.6485", "result": "876.73 ± 0.56", "unit": "kg/m3"}, {"measurement": "mass density", "setting": "[3]; 303.15 K, x1 = 0.7112", "result": "872.04 ± 0.58", "unit": "kg/m3"}, {"measurement": "mass density", "setting": "[3]; 303.15 K, x1 = 0.7866", "result": "866.61 ± 0.61", "unit": "kg/m3"}, {"measurement": "mass density", "setting": "[3]; 303.15 K, x1 = 0.8415", "result": "862.79 ± 0.62", "unit": "kg/m3"}, {"measurement": "mass density", "setting": "[3]; 303.15 K, x1 = 0.9054", "result": "858.48 ± 0.65", "unit": "kg/m3"}, {"measurement": "mass density", "setting": "[3]; 303.15 K, x1 = 0.9658", "result": "854.51 ± 0.67", "unit": "kg/m3"}, {"measurement": "mass density", "setting": "[3]; 313.15 K, x1 = 0.0455", "result": "924.59 ± 0.38", "unit": "kg/m3"}, {"measurement": "mass density", "setting": "[3]; 313.15 K, x1 = 0.1112", "result": "916.97 ± 0.4", "unit": "kg/m3"}, {"measurement": "mass density", "setting": "[3]; 313.15 K, x1 = 0.1862", "result": "908.77 ± 0.43", "unit": "kg/m3"}, {"measurement": "mass density", "setting": "[3]; 313.15 K, x1 = 0.2562", "result": "901.56 ± 0.45", "unit": "kg/m3"}, {"measurement": "mass density", "setting": "[3]; 313.15 K, x1 = 0.3215", "result": "895.19 ± 0.48", "unit": "kg/m3"}, {"measurement": "mass density", "setting": "[3]; 313.15 K, x1 = 0.3952", "result": "888.37 ± 0.5", "unit": "kg/m3"}, {"measurement": "mass density", "setting": "[3]; 313.15 K, x1 = 0.4514", "result": "883.43 ± 0.52", "unit": "kg/m3"}, {"measurement": "mass density", "setting": "[3]; 313.15 K, x1 = 0.5111", "result": "878.4 ± 0.54", "unit": "kg/m3"}, {"measurement": "mass density", "setting": "[3]; 313.15 K, x1 = 0.5841", "result": "872.52 ± 0.56", "unit": "kg/m3"}, {"measurement": "mass density", "setting": "[3]; 313.15 K, x1 = 0.6451", "result": "867.83 ± 0.58", "unit": "kg/m3"}, {"measurement": "mass density", "setting": "[3]; 313.15 K, x1 = 0.7124", "result": "862.86 ± 0.6", "unit": "kg/m3"}, {"measurement": "mass density", "setting": "[3]; 313.15 K, x1 = 0.7854", "result": "857.69 ± 0.62", "unit": "kg/m3"}, {"measurement": "mass density", "setting": "[3]; 313.15 K, x1 = 0.8451", "result": "853.61 ± 0.64", "unit": "kg/m3"}, {"measurement": "mass density", "setting": "[3]; 313.15 K, x1 = 0.9011", "result": "849.9 ± 0.66", "unit": "kg/m3"}, {"measurement": "mass density", "setting": "[3]; 313.15 K, x1 = 0.9655", "result": "845.75 ± 0.68", "unit": "kg/m3"}]}, {"smiles": "CN(C)C=O", "note": "[dimethylformamide]", "values": [{"measurement": "refractive index", "setting": "[1]", "result": "1.4307 ± 0.0007"}, {"measurement": "mass density", "setting": "[2]", "result": "943.85 ± 0.23", "unit": "kg/m3"}]}]}
